Square brackets hold non-standard residues; d marks the D form. Ends that are not written are not given here. pY = N[C@@H](Cc1ccc(OP(=O)(O)O)cc1)C(=O)O

The subject of this assay is p110β/p85β-nicSH2. The assay is described as follows: [γ32P]-ATP nitrocellulose-binding assay of PIP3 production. It counts as biochemical, mouse. The protocol:
or absence of 10 μM PDGF bis-phosphopeptide. Reactions were carried out with 1 μCi [γ32P]-ATP per reaction, with 100 μM ATP and 1 mg/ml total “brain lipids” or 1.5 mM diC8-PIP2/POPS vesicles for 60 min. The vesicle compositions are indicated.
(B) Integrated intensities of the spots using the “brain liposomes” (left panel) or diC8-PIP2/POPS liposomes (Invitrogen) (right panel), quantitated with the ImageQuant software.
The bars represent standard deviations of the mean for two measurements. The hatched bars are for reactions in the presence of PDGF bis-phosphopeptide.
(C) SDS PAGE analysis of the proteins used for the assays in (A and B). Samples of 10 μl of […] protein solutions for each of the reaction were analyzed on a 4-12% NuPAGE Novex Bis-Tris gel in MES running buffer (Invitrogen). The upper band is the p110 subunit and the lower band is the regulatory subunit.
(D) Stereo view of the contacts between the p85β-cSH2 domain and the C-lobe of the kinase domain. The Tyr677-p85β (red) inserts into a hydrophobic groove between the two elbows kα7/kα8 (yellow) and kα11/kα12 (orange). Tyr677-p85β also makes a potential hydrogen bond with Ser1046-p110β (dashed black line).
To determine the effect of receptor tyrosine kinases (RTK) on PI3K activity, the assays were performed in absence or presence of 10 μM pY peptides:
7. Mm-PDGFR (pY2): ESDGG(pY)MDMSKDESID(pY)VPMLDMKGDIKYADIE (residues
10. Hs-PDGFR-pY740+5 position 5 mutated to P: DGG(pY)MDMSP
11. Hs-PDGFR-pY740+5 position 5 mutated to A: DGG(pY)MDMSA
12. Hs-PDGFR-pY740+5 position 5 mutated to S: DGG(pY)MDMSS
13. […]
The reactions were stopped by addition of 10 μl of stop/detection buffer (1X Stop & Detect Buffer B, 4 nM ADP Alexa633 Tracer, 109 μg/ml ADP2 antibody), followed by 1 h equilibration. Fluorescence polarization was measured on a PHERAStar plus HTS microplate reader (BMG Labtech), using a fluorescence polarization module with excitation centered at 633 nm and emission at 650 nm. […]
The PIP3 lipids produced in PI3K in vitro assays as described above were also measured by a mass-spectrometry based assay (Clark et al.). […]

For the substance “ESDGG[pY]MDMSKDESID[pY]VPMLDMKGDIKYADIE [pY2, bis-phosphopeptide (PDGFR 735–767, with pY740 and pY751)]”, under “p110β/p85β-nicSH2, 10 μM pY2, 1 mg/ml brain lipids (5% PIP2, 20% PS, 15% PC, 45% PE, 5% sphingomyelin, 10% cholesterol), 100 μM ATP, 60 min”, the “fold activation by pY2, PIP3 formation, brain lipids” value is 10 fold. Besides, for the setting “p110β/p85β-nicSH2, 10 μM pY2, 1.5 mM diC8-PIP2/POPS, 100 μM ATP, 60 min”, the “fold activation by pY2, PIP3 formation, diC8-PIP2/POPS liposomes” value was determined as 16 fold. Also, where the note is “radioactive phosphorylation assay, Figures S2A–S2C”, the “effect on lipid kinase activity of p110β SH2-containing complexes, PIP3 formation” value is “stimulates lipid kinase activity”.

The values are drawn from publication PMC3670040, “Structure of Lipid Kinase p110β/p85β Elucidates an Unusual SH2-Domain-Mediated Inhibitory Mechanism” (Molecular Cell, 2011).
